Data set [1] is filed under the species Sus scrofa. Kind of data set: Maximal elimination rate of metabolism for hog liver folyl-poly-glutamate synthetase was evaluated. The class given is ADME. The arrangement: unit not given here. The conditions noted are these: pig.
A further data set addresses T1, Dihydrofolate reductase (Homo sapiens, UniProt P00374).
T1 sequence (P00374 whole entry): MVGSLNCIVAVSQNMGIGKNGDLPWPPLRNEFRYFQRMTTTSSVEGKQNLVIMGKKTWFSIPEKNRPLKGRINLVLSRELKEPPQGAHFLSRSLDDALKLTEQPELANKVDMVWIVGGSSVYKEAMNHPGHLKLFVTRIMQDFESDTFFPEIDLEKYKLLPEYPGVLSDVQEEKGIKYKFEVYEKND
Kind of data set: Inhibition of human dihydrofolate reductase. The conditions noted are these: read-out: I50.

The subject of data set [2] is folylpolyglutamate synthetase. The data set can be described thus: (§1) Km for hog liver folyl-poly-glutamate synthetase was evaluated. The class given is ADME, Sus scrofa. The following applies: pig, hog liver folylpolyglutamate synthetase.
Data set [3] is filed under the species Sus scrofa. The data set is described as §1. The class given is ADME. The following applies: pig.

A word on the Km: it is the concentration of substrate that gives half-maximal velocity. Consider `Nc1nc(O)c2c(Cl)c(CNc3ccc(C(=O)NC(CCC(=O)O)C(=O)O)cc3)ccc2n1` (stereo not drawn), for which, in the data set filed under Sus scrofa [1], the Vmax was 68. In addition, the IC50 at Dihydrofolate reductase stood at 100 nM. Further, in data set [2], the Km worked out at 0.3 µM. Consider `Nc1nc2ncc(CNc3ccc(C(=O)N[C@@H](CCC(=O)O)C(=O)O)cc3)nc2c(=O)[nH]1` (stereo in doubt; form 2) [FOLIC ACID], for which the Vmax in the data set filed under Sus scrofa [1] stood at 61. For the same compound, the Michaelis-Menten constant (Km) in the data set filed under Sus scrofa [3] turned out to be 93 µM. Taken in the same sequence, the figures for `Nc1nc2ncc(CNc3ccc(C(=O)N[C@@H](CCC(=O)O)C(=O)O)cc3)nc2c(=O)[nH]1` (stereo in doubt; form 1) [FOLIC ACID] were 100 and 7.7 µM. With `O=C(O)CCC(NC(=O)c1ccc(OCc2ccc3ncnc(O)c3c2)cc1)C(=O)O` (stereo not drawn), in the data set listed under Sus scrofa [1], the Vmax was 95. For the same compound, in data set [2], the Km worked out at 35 µM.

As for `NCCCC(NC(=O)c1ccc(SCc2ccc3nc(N)[nH]c(=O)c3c2)cc1)C(=O)O` (stereo not drawn), the IC50 at Dihydrofolate reductase was 1500 nM. As for `Nc1nc(N)c2c(Cl)c(CNc3ccc(C(=O)NC(CCC(=O)O)C(=O)O)cc3)ccc2n1` (stereo not drawn), the Vmax in the data set listed under Sus scrofa [1] came to 57. The Km in data set [2] is 0.2 µM. The corresponding values for `O=C(O)CCC(NC(=O)c1ccc(SCc2ccc3ncnc(O)c3c2)cc1)C(=O)O` (stereo not drawn) are 50 and 8.1 µM.

Turning to `Nc1nc(O)c2cc(COc3ccc(C(=O)NC(CCC(=O)O)C(=O)O)cc3)ccc2n1` (stereo not drawn), in the data set filed under Sus scrofa [1], the Vmax amounted to 25. In addition, in data set [2], the Michaelis-Menten constant (Km) was 22 µM. Turning to `NCCCC(NC(=O)c1ccc(OCc2ccc3nc(N)nc(O)c3c2)cc1)C(=O)O` (stereo not drawn), the IC50 on Dihydrofolate reductase came out at 530 nM. For the compound `NCCCC(NC(=O)c1ccc(NCc2ccc3nc(N)nc(N)c3c2Cl)cc1)C(=O)O` (stereo not drawn), at Dihydrofolate reductase, the IC50 worked out at 3 nM. On the same count and under the same terms, to `NCCCC(NC(=O)c1ccc(SCc2ccc3ncnc(O)c3c2)cc1)C(=O)O` (stereo not drawn) belongs 3800 nM. For the compound `NCCCC(NC(=O)c1ccc(NCc2ccc3nc(N)[nH]c(=O)c3c2Cl)cc1)C(=O)O` (stereo not drawn), the IC50 at Dihydrofolate reductase came to 430 nM. Same read-out and setting: to `NCCCC(NC(=O)c1ccc(OCc2ccc3nc[nH]c(=O)c3c2)cc1)C(=O)O` (stereo not drawn) belongs 3800 nM.

Consider `Nc1nc(O)c2cc(CSc3ccc(C(=O)NC(CCC(=O)O)C(=O)O)cc3)ccc2n1` (stereo not drawn), for which the Vmax in the data set filed under Sus scrofa [1] amounted to 33. For the same compound, the Km in data set [2] was 15 µM.
